Experimental data taken from the supplement of paper PMC7840683.
± gives the standard deviation of the averaged measurements.

System: HepaRG
Test: LDH release cytotoxicity, % of total lysis control; higher = more cytotoxic
Conditions: 48 h
Procedure, shortened: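 On collagen I-coated 96-well plates, single-lot HepaRG cells were exposed for 48 h, in duplicate, to eight-point half-log series of test chemicals beginning at 100 µM. The exposure medium was serum-free induction medium with 0.5% DMSO, and total lysis wells got 0.1% Triton X. Resorufin fluorescence from the CytoTox-ONE reaction, read on a Tecan Safire, reported LDH in 50 µL of spent medium. Percent cytotoxicity came from normalization to on-plate vehicle and total lysis controls, averaged over the duplicates.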

Compound | LDH release cytotoxicity (0.03162 µM) [%] | LDH release cytotoxicity (0.1 µM) [%] | LDH release cytotoxicity (0.3162278 µM) [%] | LDH release cytotoxicity (1 µM) [%] | LDH release cytotoxicity (3.16228 µM) [%] | LDH release cytotoxicity (10 µM) [%] | LDH release cytotoxicity (31.6228 µM) [%] | LDH release cytotoxicity (100 µM) [%] | further results
FC(F)(F)C(F)(F)C(F)(F)C(F)(F)C(F)(F)C(F)(F)CCI [1H,1H,2H,2H-Perfluorooctyl iodide] | -2.1 ± 0.36 | -1.68 ± 0.34 | -1.96 ± 0.36 | -2.44 ± 0.81 | -1.64 ± 0.62 | -1.16 ± 0.9 | -0.32 ± 0.46 | 1 ± 0.87 | 
c1nc[nH]n1 [1H-1,2,4-Triazole] | 0.679 ± 0.53 | 0.298 ± 0.72 | -1.06 ± 0.17 | -0.618 ± 0.53 | 0.566 ± 1.4 | 0.541 ± 1.2 | 1.08 ± 0.1 | 2.04 ± 1.2 | 
O=c1[nH]cnc2c1ncn2C1CCC(CO)O1 (stereo not given) [2',3'-Dideoxyinosine] | -2.26 ± 0.4 | -1.91 ± 0.031 | -1.96 ± 1 | -1.29 ± 0.97 | -1.75 ± 0.0016 | -1.3 ± 0.057 | -1.11 ± 1.1 | -0.428 ± 0.43 | 
O=C(c1ccc(O)cc1O)c1ccc(O)cc1O [2,2',4,4'-Tetrahydroxybenzophenone] |  | -1.13 ± 1.1 |  | -1.52 ± 0.89 | -2.25 ± 0.71 | -1.76 ± 0.33 | 1.26 ± 0.54 | 35.3 ± 1.2 | LDH release cytotoxicity (0.031623 µM): -0.783 ± 0.28%; LDH release cytotoxicity (0.316228 µM): -1.37 ± 0.79%
NCCOCCOCCN [2,2'-[Ethane-1,2-diylbis(oxy)]diethanamine] | -0.945 ± 0.74 | -1.12 ± 0.47 | -0.214 ± 0.033 | 0.303 ± 0.8 | 2.6 ± 0.91 | 2.46 ± 0.46 | 1.93 ± 0.86 | 4 ± 0.68 | 
CC(C)C(=O)OCC(C)(C)C(OC(=O)C(C)C)C(C)C (stereo not given) [2,2,4-Trimethyl-1,3-pentanediol diisobutyrate] | -1.97 ± 1.2 | -3.46 ± 0.69 | -3.48 ± 0.61 | -2.95 ± 0.15 | -3.05 ± 0.42 | -2.18 ± 0.16 | -2.05 ± 0.51 | 0.686 ± 0.88 | 
Oc1ccc(C(c2ccc(O)cc2)C(Cl)(Cl)Cl)cc1 [2,2-Bis(4-hydroxyphenyl)-1,1,1-trichloroethane] |  |  |  |  |  |  |  |  | LDH release cytotoxicity (0.0320971 µM): 1.05 ± 0.97%; LDH release cytotoxicity (0.1015 µM): 0.207 ± 0.19%; LDH release cytotoxicity (0.320971 µM): 0.656 ± 0.4%; LDH release cytotoxicity (1.015 µM): 1.23 ± 0.62%; LDH release cytotoxicity (3.2097118 µM): 0.563 ± 0.45%; LDH release cytotoxicity (10.15 µM): 0.192 ± 0.82%; LDH release cytotoxicity (32.0971 µM): 1.16 ± 0.45%; LDH release cytotoxicity (101.5 µM): 2.4 ± 0.33%
N#CC(Br)(Br)C(N)=O [2,2-Dibromo-3-nitrilopropionamide] |  |  |  |  |  |  |  |  | LDH release cytotoxicity (0.0314647 µM): -1.52 ± 0.18%; LDH release cytotoxicity (0.0995 µM): -0.658 ± 0.1%; LDH release cytotoxicity (0.3146466 µM): -0.437 ± 0.73%; LDH release cytotoxicity (0.995 µM): -0.589 ± 0.45%; LDH release cytotoxicity (3.14647 µM): 0.314 ± 0.39%; LDH release cytotoxicity (9.95 µM): 0.381 ± 0.73%; LDH release cytotoxicity (31.4647 µM): -0.137 ± 0.43%; LDH release cytotoxicity (99.5 µM): 1.42 ± 0.75%
Cc1ccc(C)c(O)c1C [2,3,6-Trimethylphenol] | -2.75 ± 0.2 | -1.45 ± 0.5 | -1.53 ± 0.21 | -1.64 ± 0.019 | -1.22 ± 0.35 | -0.829 ± 0.93 | -0.517 ± 0.35 | 0.375 ± 0.18 | 
c1ccc2occc2c1 [2,3-Benzofuran] | -0.572 ± 0.84 | -1.07 ± 0.4 | -0.829 ± 0.4 | -0.181 ± 0.71 | -1.1 ± 0.81 | 0.338 ± 0.67 | 2.32 ± 1.2 | 2.02 ± 0.38 | 
Cc1cccc(N)c1N [2,3-Diaminotoluene] | -0.0536 ± 0.59 | -0.722 ± 0.31 | 0.216 ± 0.21 | -0.468 ± 0.4 | -0.351 ± 0.98 | 0.016 ± 0.52 | -0.572 ± 0.99 | 0.619 ± 0.97 | 
Oc1cc(Cl)c(Cl)cc1Cl [2,4,5-Trichlorophenol] | -1.03 ± 1.1 | -1.29 ± 0.21 | -1.7 ± 1.3 | -1.77 ± 0.63 | -1.83 ± 0.36 | -1.75 ± 0.2 | -1.87 ± 1.3 | -0.358 ± 0.97 | 
Cc1cc(C)c(O)c(C)c1 [2,4,6-Trimethylphenol] | -0.941 ± 0.86 | -0.527 ± 0.093 | -0.0601 ± 1 | -1.16 ± 0.46 | -0.619 ± 0.33 | -0.296 ± 0.75 | 0.116 ± 0.41 | 0.371 ± 1.2 | 
CC(C)(C)c1cc(C(C)(C)C)c(O)c(C(C)(C)C)c1 [2,4,6-Tris(tert-butyl)phenol] | -0.34 ± 0.36 | -0.143 ± 0.55 | -0.16 ± 0.35 | -0.404 ± 0.24 | -0.476 ± 0.26 | 0.204 ± 1.6 | -0.0327 ± 1.8 | 0.75 ± 0.75 | 
CC(C)CC(C)(O)C#CC(C)(O)CC(C)C (stereo not given) [2,4,7,9-Tetramethyl-5-decyne-4,7-diol] | -0.689 ± 0.26 | -0.678 ± 0.45 | -0.883 ± 0.019 | -1.4 ± 0.25 | -0.76 ± 0.5 | -0.333 ± 0.27 | 0.979 ± 0.2 | 2.91 ± 0.27 | 
CC(C)(c1ccccc1)c1ccc(O)c(C(C)(C)c2ccccc2)c1 [2,4-Bis(1-methyl-1-phenylethyl)phenol] | -0.358 ± 0.3 | -1.13 ± 0.14 | -0.577 ± 0.043 | -1.2 ± 1.5 | -1.41 ± 0.08 | -0.479 ± 0.49 | -0.0613 ± 0.39 | 0.487 ± 0.24 | 
CC(C)(C)c1ccc(O)c(C(C)(C)C)c1 [2,4-Di-tert-butylphenol] | -2.05 ± 0.42 | -1.71 ± 0.24 | -1.9 ± 1.1 | -2.07 ± 0.9 | -1.83 ± 0.043 | -1.53 ± 0.18 | -0.783 ± 0.87 | 0.8 ± 0.4 | 
CCC(C)(C)c1ccc(O)c(C(C)(C)CC)c1 [2,4-Di-tert-pentylphenol] | 0.622 ± 0.85 | -1.25 ± 0.82 | -0.993 ± 0.16 | -1.77 ± 0.046 | -1.69 ± 0.36 | -1.3 ± 0.39 | -1.19 ± 0.04 | 0.754 ± 0.54 | 
Cc1ccc(N)cc1N [2,4-Diaminotoluene] |  | -0.98 ± 2.2 |  | -2.17 ± 0.74 | -1.86 ± 1.7 | -1.56 ± 0.44 | -1.29 ± 0.18 | -0.394 ± 0.68 | LDH release cytotoxicity (0.031623 µM): -1.84 ± 0.43%; LDH release cytotoxicity (0.316228 µM): -1.49 ± 1.2%
Oc1ccc(Cl)cc1Cl [2,4-Dichlorophenol] |  |  |  |  |  |  |  |  | LDH release cytotoxicity (0.03305 µM): -0.867 ± 0.13%; LDH release cytotoxicity (0.1045 µM): -1.22 ± 0.36%; LDH release cytotoxicity (0.330458 µM): -1.99 ± 0.46%; LDH release cytotoxicity (1.045 µM): -1.67 ± 0.36%; LDH release cytotoxicity (3.30458 µM): -1.98 ± 0.042%; LDH release cytotoxicity (10.45 µM): -1.68 ± 0.079%; LDH release cytotoxicity (33.0458 µM): -2.38 ± 0.071%; LDH release cytotoxicity (104.5 µM): -0.904 ± 0.016%
